Measurements as given in the supplement of paper PMC5908809.

Key:
[1] = test system: IMC-1 (IL-2 20 ng/mL); experiment: drug sensitivity score (DSS) (DSS units); higher = more sensitive; extreme values may be limits of the assay; conditions: 72 h
[2] = test system: KHYG-1 (IL-2 2.5 ng/mL); experiment: as above; conditions: 72 h
[3] = test system: normal primary NK cells, pool 3 (3 donors) (IL-2 2.5 ng/mL); experiment: as above; conditions: 72 h
[4] = test system: normal primary NK cells, pool 1 (3 donors), resting (IL-2 0 ng/mL); experiment: as above; conditions: 72 h
[5] = test system: NK-YS (IL-2 2.5 ng/mL); experiment: as above; conditions: 72 h
[6] = test system: DERL-7 (IL-2 2.5 ng/mL); experiment: as above; conditions: 72 h
[7] = test system: normal primary NK cells, pool 1 (3 donors) (IL-2 2.5 ng/mL); experiment: as above; conditions: 72 h
[8] = test system: normal primary NK cells, pool 2 (3 donors) (IL-2 2.5 ng/mL); experiment: as above; conditions: 72 h
[9] = test system: NKL (IL-2 2.5 ng/mL); experiment: as above; conditions: 72 h
[10] = test system: KAI3 (IL-2 2.5 ng/mL); experiment: as above; conditions: 72 h
[11] = test system: NK-92 (IL-2 2.5 ng/mL); experiment: as above; conditions: 72 h
[12] = test system: SNK-6 (IL-2 2.5 ng/mL); experiment: as above; conditions: 72 h
[13] = test system: YT (IL-2 2.5 ng/mL); experiment: as above; conditions: 72 h
[14] = test system: normal NK cells expanded with K562-aAPC; experiment: as above; conditions: 72 h; IL-2 2.5 ng/mL
Protocol: (§1)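 Drug sensitivity and resistance testing on K562-aAPC-expanded normal NK cells: 5 concentrations (10-fold steps over a 10,000-fold range), 72 h at 37 °C, viability by CellTiter-Glo normalised to DMSO and benzethonium chloride controls; DSS from the fitted curve.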

[15] = test system: normal NK cells expanded with K562-aAPC; experiment: percent inhibition of viability; higher = more inhibition; conditions: 72 h, IL-2 2.5 ng/mL
Protocol: as §1

[16] = test system: IMC-1 (IL-2 20 ng/mL); experiment: as above; conditions: 72 h
[17] = test system: KHYG-1 (IL-2 2.5 ng/mL); experiment: as above; conditions: 72 h
[18] = test system: normal primary NK cells, pool 3 (3 donors) (IL-2 2.5 ng/mL); experiment: as above; conditions: 72 h
[19] = test system: normal primary NK cells, pool 1 (3 donors), resting (IL-2 0 ng/mL); experiment: as above; conditions: 72 h
[20] = test system: NK-YS (IL-2 2.5 ng/mL); experiment: as above; conditions: 72 h
[21] = test system: DERL-7 (IL-2 2.5 ng/mL); experiment: as above; conditions: 72 h
[22] = test system: normal primary NK cells, pool 1 (3 donors) (IL-2 2.5 ng/mL); experiment: as above; conditions: 72 h
[23] = test system: normal primary NK cells, pool 2 (3 donors) (IL-2 2.5 ng/mL); experiment: as above; conditions: 72 h
[24] = test system: NKL (IL-2 2.5 ng/mL); experiment: as above; conditions: 72 h
[25] = test system: KAI3 (IL-2 2.5 ng/mL); experiment: as above; conditions: 72 h
[26] = test system: NK-92 (IL-2 2.5 ng/mL); experiment: as above; conditions: 72 h
[27] = test system: SNK-6 (IL-2 2.5 ng/mL); experiment: as above; conditions: 72 h
[28] = test system: YT (IL-2 2.5 ng/mL); experiment: as above; conditions: 72 h

CCn1cc(-c2ccnc3[nH]c(-c4cccc(CN(C)C)c4)cc23)c(-c2ccc(NC(=O)N(C)C)cc2)n1 (max concentration tested 1000 nM)
Conditions	drug sensitivity score
[1]	6.3
[2]	8.32
[3]	0
[4]	0
[5]	16.5
[6]	14.7
[7]	0
[8]	0
[9]	3.99
[10]	4.01
[11]	5.05
[12]	18.6
[13]	4.47
[14]	8.97

percent inhibition of viability [%]
Conditions	0.1 nM	1 nM	10 nM	100 nM	1000 nM
[15]	-5.72	-6.24	-0.83	49.9	32
[16]	-3.05	2.14	9.34	18.7	69
[17]	-0.5	3.29	9.71	39.2	54
[18]	-9.36	-0.39	7.48	-0.31	7.08
[19]	10.8	-0.01	-0.34	-11.5	8.25
[20]	-3.92	-3.4	26.2	69.9	66.9
[21]	-1.42	-13.7	13.4	68.1	56.9
[22]	6.54	-2.75	2.78	-10.4	-5.89
[23]	-0.19	2.58	11.4	2.17	5.89
[24]	-15	-6.31	2.14	11.6	43.2
[25]	0.71	-0.96	15.3	16.4	34.5
[26]	-10.8	-15.2	-2.48	28.9	35.5
[27]	20.9	18.6	35	71.1	65.4
[28]	2.03	4.54	11.2	19.1	39.5

CN1CCC(COc2cnc(-c3cccc(Cn4nc(-c5cccc(C#N)c5)ccc4=O)c3)nc2)CC1 (max concentration tested 1000 nM)
Conditions	drug sensitivity score
[1]	0
[2]	0.39
[3]	0
[4]	0
[5]	0
[6]	2.76
[7]	0
[8]	0
[9]	0.35
[10]	0
[11]	0
[12]	1.09
[13]	0
[14]	0

percent inhibition of viability [%]
Conditions	0.1 nM	1 nM	10 nM	100 nM	1000 nM
[15]	-4.81	-10.8	-1.01	-5.56	4.27
[16]	-6.71	-2.19	-0.81	-1.98	-3.26
[17]	0.03	-2.13	-6.37	1.52	15.3
[18]	-8.96	-8.97	-7.75	-16	-13.7
[19]	-5.12	-27.4	-19.6	3.81	3.64
[20]	-1.64	-6.91	-7.12	-5.26	-5.69
[21]	-4.25	-4.18	3.15	4.81	39.5
[22]	-7	-6.88	-13.8	1.64	4.06
[23]	-17.1	4.11	-9.87	-10	-13.3
[24]	4.34	-14.9	-8.56	-9.54	20.4
[25]	-0.84	-8.6	-8.84	-7.75	-3.69
[26]	-7.1	-4.45	1.23	-11.4	6.42
[27]	10.8	3.77	-9.85	14	13.7
[28]	4	0.64	-1.46	-0.52	-0.42

CCOc1ccn(-c2ccc(F)cc2)c(=O)c1C(=O)Nc1ccc(Oc2ccnc(N)c2Cl)c(F)c1 (max concentration tested 2500 nM)
Conditions	drug sensitivity score
[1]	1.25
[2]	0
[3]	0
[4]	0
[5]	0.06
[6]	0
[7]	0
[8]	0
[9]	0
[10]	0.35
[11]	0.14
[12]	0.23
[13]	1.85
[14]	0

percent inhibition of viability [%]
Conditions	0.25 nM	2.5 nM	25 nM	250 nM	2500 nM
[15]	2.01	1.6	-0.61	0.57	7.12
[16]	1.35	4.61	9.25	10.7	18.1
[17]	2.8	3.63	7.75	3.92	7.23
[18]	-11.7	1.36	-4.15	-4.08	-3.34
[19]	1.56	-12.4	-1.07	-26.3	-16.3
[20]	2.13	-0.09	0.55	-3.25	13.2
[21]	0.56	6.06	-1.35	-3.94	-13.7
[22]	0.3	-5.73	-0.6	-11.2	-8.87
[23]	-3.75	2.69	-0.75	-6	3.09
[24]	-8.21	-0.56	-2.88	6.9	-2.79
[25]	-2.82	-5.11	1.22	-8.32	20.1
[26]	3.4	-2.02	21.5	-9.18	16.5
[27]	22.9	33.8	31.2	18.3	22.9
[28]	2.07	4.23	5.47	0.52	37

C[C@@]1(C(=O)Nc2ccc(F)nc2)CCCN1c1nc(Nc2cc(C3CC3)n[nH]2)c2cccn2n1 (max concentration tested 10000 nM)
Conditions	drug sensitivity score
[1]	4.66
[2]	7.7
[3]	0
[4]	2.52
[5]	12.7
[6]	13.9
[7]	0.16
[8]	0
[9]	0
[10]	4.58
[11]	7.43
[12]	10.8
[13]	5.62
[14]	7.77

percent inhibition of viability [%]
Conditions	1 nM	10 nM	100 nM	1000 nM	10000 nM
[15]	-9.12	-3.4	-6.53	45.5	42.2
[16]	1.89	-6.3	0.07	3.22	76.3
[17]	-3.05	-5.44	1.8	30.1	70.8
[18]	-3.23	-1.9	0.53	7.47	-2.1
[19]	-9	-4.43	15.4	-2.47	51.6
[20]	-3.69	-4.66	4.73	65.5	77.1
[21]	-1.6	5.82	2.68	74.3	60.1
[22]	-6.95	-10	3.68	2.67	12.4
[23]	-2.95	-4.83	-5.48	-1.42	10.7
[24]	-16.6	-4.3	-14.1	1.87	-5.96
[25]	-1.42	-2.58	4.51	22.4	41.7
[26]	1.84	11	7.85	33.8	57.6
[27]	2.3	-11.9	-15.8	57.8	74.8
[28]	3.08	1.72	7.96	25	51.8
